{"source": "paper PMC5730406", "about": "(European journal of immunology, 2015)", "target": "T1, Itk F434G/Δ429 (Itkas) (Homo sapiens, UniProt Q08881, DEL429-429/F435G)", "T1 sequence (Q08881 with tags, fused parts or gaps DEL429-429/F435G)": "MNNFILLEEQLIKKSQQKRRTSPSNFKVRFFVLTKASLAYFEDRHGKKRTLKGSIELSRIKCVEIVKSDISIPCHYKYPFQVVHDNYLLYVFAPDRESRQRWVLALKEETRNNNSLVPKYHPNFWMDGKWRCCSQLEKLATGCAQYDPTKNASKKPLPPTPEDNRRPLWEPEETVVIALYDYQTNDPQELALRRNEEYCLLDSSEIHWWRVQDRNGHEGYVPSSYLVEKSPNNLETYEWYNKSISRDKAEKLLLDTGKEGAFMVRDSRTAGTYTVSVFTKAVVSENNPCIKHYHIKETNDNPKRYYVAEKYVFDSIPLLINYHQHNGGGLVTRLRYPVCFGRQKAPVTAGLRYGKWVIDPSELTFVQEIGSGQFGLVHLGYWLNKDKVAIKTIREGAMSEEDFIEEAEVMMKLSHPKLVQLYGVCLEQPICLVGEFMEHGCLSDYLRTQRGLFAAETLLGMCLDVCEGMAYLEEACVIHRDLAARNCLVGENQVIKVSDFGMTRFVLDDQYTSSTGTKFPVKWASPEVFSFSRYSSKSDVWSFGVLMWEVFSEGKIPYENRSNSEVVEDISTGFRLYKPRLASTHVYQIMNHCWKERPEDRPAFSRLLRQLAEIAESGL", "assay_type": "cell-based", "data": [{"smiles": "CC(C)(C)n1nc(Cc2cccc3ccccc23)c2c(N)ncnc21", "note": "[1-NM-PP1]", "values": [{"measurement": "IC50", "result": "~50", "unit": "nM"}]}]}
